Three molecules from ChEMBL document CHEMBL1149747, “Diterpene metabolites from two chemotypes of the marine sponge Myrmekioderma styx” (J Nat Prod, 1992) can be followed below.

One test has as its system P388. Put plainly: Cytotoxicity against mouse P388 cells. The format is functional, cell-based.
In the next test the test system is A549. Description: Cytotoxicity against human A549 cells. The format is functional, cell-based.

Structures are written as SMILES. In brackets after ≈: the same amount, converted by molar mass.

Take `CC(=O)O[C@@H]1C[C@]2(C)C[C@@H]3O[C@]3(C)CCC2[C@@H]2C(C(C)C)=CC[C@]12C` (stereo partly specified): the values for the IC50 in the test with P388 and with A549 were 5.6 µg/mL (≈ 16.2 µM) and 7 µg/mL (≈ 20.2 µM), respectively.

As to `CC1=CC[C@@]2(C)CC[C@@]3(C)[C@H](O)C=C(C(C)C)[C@H]3C2CC1` (stereo partly specified), the results for the IC50 in the test with P388 and in the test on A549 were 11.2 µg/mL (≈ 38.8 µM) and 4 µg/mL (≈ 13.9 µM), respectively.

Consider `C=CC(C)(O)/C=C/C=C(\C)CC/C=C(\C)CC(=O)C=C(C)C` (stereo unspecified) [STYXENOL A], for which the IC50 (commonly the concentration that gives 50% inhibition) in the test with P388 is 5 µg/mL (≈ 16.5 µM); with A549, 6.1 µg/mL (≈ 20.2 µM).
